Reference: publication PMC3478282, “Probing the Putative Active Site of YjdL: An Unusual Proton-Coupled Oligopeptide Transporter from E. coli” (PLoS ONE, 2012)
Numbering of substitutions follows the chain as printed. Residues, ends and D or L forms follow the SMILES beside them.

Columns and labels:
Type in all cases: cell-based, E. coli
YjdL Ala281Phe = biological target: T1, YjdL Ala281Phe (Escherichia coli, UniProt P39276, A281F); assay: β-Ala-Lys(AMCA) uptake and inhibition assay, YjdL Ala281Phe; conditions: for IC50: 0.2 mM β-Ala-Lys(AMCA), 5 min incubation, pH 6.5, ±SEM, n≥3
T1 construct: host or cells: E. coli BL21(DE3)pLysS
T1 sequence (P39276 1-485 A281F): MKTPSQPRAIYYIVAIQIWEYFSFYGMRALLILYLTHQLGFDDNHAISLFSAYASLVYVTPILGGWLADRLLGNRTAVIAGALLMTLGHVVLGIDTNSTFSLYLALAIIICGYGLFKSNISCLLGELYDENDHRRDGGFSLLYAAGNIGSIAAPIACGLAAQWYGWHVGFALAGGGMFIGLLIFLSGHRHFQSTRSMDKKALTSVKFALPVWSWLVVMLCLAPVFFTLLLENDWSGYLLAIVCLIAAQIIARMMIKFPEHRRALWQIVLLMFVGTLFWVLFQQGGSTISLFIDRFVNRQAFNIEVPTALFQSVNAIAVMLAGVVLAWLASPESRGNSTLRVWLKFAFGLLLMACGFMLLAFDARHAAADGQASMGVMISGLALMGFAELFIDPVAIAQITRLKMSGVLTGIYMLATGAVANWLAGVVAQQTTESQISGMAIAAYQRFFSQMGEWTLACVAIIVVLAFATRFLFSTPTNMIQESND
Protocol: (§1) Plasmids were transformed into E. coli BL21(DE3)pLysS cells by heat shock and transformants were selected on agar plates containing 100 µg/mL ampicillin and 34 µg/mL chloramphenicol. Single transformants were inoculated into 2 mL LB-media with antibiotics as above and grown overnight. The cultures were diluted 1∶50 in 5 mL LB-media with antibiotics as above, and at an OD600 of 0.5–0.8 protein expression was induced by the addition of 1 mM isopropyl β-D-1-thiogalactopyranoside (IPTG). The cells were harvested after three hours of induction by centrifugation and resuspended in uptake buffer (50 mM MES pH 6.5, 140 mM NaCl, 5.4 mM KCl, 1.8 mM CaCl2, 0.8 mM MgSO4, and 5 mM glucose).
(§2) Uptake assays were performed as previously described, [20]. In a final assay volume of 100 µL; 0.2 mM β-Ala-Lys-N-7-amino-4-methylcoumarin-3-acetic acid (β-Ala-Lys(AMCA), Biotrend) (10 µL) and various concentrations of ligands (purchased from Bachem or Sigma-Aldrich) or uptake buffer (50 µL) were incubated with bacterial cell suspension (OD600 = 10, 40 µL) at 37°C. After 5 min, the uptake was stopped by addition of 500 µL ice-cold uptake buffer followed by immediate centrifugation and washing twice in ice-cold uptake buffer. Finally the cell pellet was resuspended in 100 µL uptake buffer, and the uptake was quantified by fluorescence measurements (excitation at 340 nm and emission at 460 nm) on a Safire 2 fluorimeter. Non-specific uptake was measured as described above on IPTG-induced E. coli BL21(DE3)pLysS cells harboring the empty pTTQ18 vector. All uptake assay experiments were reproduced at least three times independently and data analyses were performed using GraphPad Prism ver. 5.

YjdL Tyr113Phe = biological target: T2, YjdL Tyr113Phe (Escherichia coli, UniProt P39276, Y113F); assay: β-Ala-Lys(AMCA) uptake and inhibition assay, YjdL Tyr113Phe; conditions: for IC50: 0.2 mM β-Ala-Lys(AMCA), 5 min incubation, pH 6.5, ±SEM, n≥3
T2 construct: expressed in transfected cells; host or cells: E. coli BL21(DE3)pLysS, pTTQ18-yjdL mutant (QuikChange)
T2 sequence (P39276 1-485 Y113F): T1 sequence (P39276 1-485 A281F) with Y113F, F281A
Protocol: as §1, §2

YjdL Tyr21Phe = biological target: T3, YjdL Tyr21Phe (Escherichia coli, UniProt P39276, Y21F); assay: β-Ala-Lys(AMCA) uptake and inhibition assay, YjdL Tyr21Phe; conditions: 0.2 mM β-Ala-Lys(AMCA), 5 min incubation, pH 6.5; ±SEM, n≥3
T3 construct: expressed in transfected cells; host or cells: E. coli BL21(DE3)pLysS, pTTQ18-yjdL mutant (QuikChange)
T3 sequence (P39276 1-485 Y21F): T1 sequence (P39276 1-485 A281F) with Y21F, F281A
Protocol: as §1, §2

[1] = 0.2 mM, 5 min, pH 6.5 (Figure 3)

Which “increase of β-Ala-Lys(AMCA) uptake compared to WT-YjdL, Ala281Phe” value (YjdL Ala281Phe; [1]) does the source give for “β-Ala-Lys-N-7-amino-4-methylcoumarin-3-acetic acid [β-Ala-Lys(AMCA)]” here?
Its value is about 3 fold.

What about the “increase of β-Ala-Lys(AMCA) uptake, YjdL Tyr113Phe” value (YjdL Tyr113Phe; [1]) of the same compound?
The value was about 2 fold.

For `C[C@H](N)C(=O)N[C@@H](C)C(=O)O` [Ala-Ala] (H-Ala-Ala-OH), which IC50 (YjdL Ala281Phe) is on record?
The IC50 was over 50 mM.

What about the IC50 (YjdL Tyr113Phe) of the same compound?
The IC50 was 1.9 ± 0.1 mM.

What about the IC50 (YjdL Tyr21Phe) of the same compound?
The IC50 was 4.5 ± 0.3 mM.

How did the IC50 (YjdL Ala281Phe) turn out when `C[C@H](N)C(=O)N[C@@H](CCCCN)C(=O)O` [Ala-Lys] (H-Ala-Lys-OH) was run?
Its IC50 is 0.26 ± 0.02 mM.

What about the IC50 (YjdL Tyr113Phe) of the same compound?
Its IC50 is 0.34 ± 0.04 mM.

What about the IC50 (YjdL Tyr21Phe) of the same compound?
The IC50 was 0.45 ± 0.07 mM.

How did the IC50 (YjdL Ala281Phe) turn out when `C[C@H](NC(=O)[C@@H](N)Cc1ccc(O)cc1)C(=O)O` [Tyr-Ala] was run?
The IC50 was 33.2 ± 3.4 mM.

What about the IC50 (YjdL Tyr113Phe) of the same compound?
Its IC50 is 1.3 ± 0.3 mM.

And the IC50 (YjdL Tyr21Phe)?
Its IC50 is 4.7 ± 0.8 mM.
